# Reference: US9730940B2, “Purine inhibitors of human phosphatidylinositol 3-kinase delta” (priority 2012, dated 2017)
# Molecular target: PI3K-alpha (Homo sapiens (Human), UniProt P42336)
# Assay: HTRF PI3K biochemical assay, alpha isoform
# Conditions: ratio PI3K-alpha IC50 value/PI3K-delta IC50 value
# From the text: HTRF PI3K Biochemical Assay to Measure Intrinsic Potency of Compound Inhibitors
# The PI3-Kinase biochemical assays were developed to measure the intrinsic potency and compound dependent inhibition of the alpha, beta, delta, and gamma PI3K isoform enzymes. This assay was developed and further optimized from a kit produced by Upstate (Millipore catalog #33-047) and has been configured for HTS and SAR screening. Briefly, this procedure exploits the exquisite specificity and high affinity binding of enzyme reaction substrate phosphatidyl(3,4,5)triphosphate (PIP3) to the GRP1 pleckstrin homology (PH) domain to generate the signal. In the absence of PIP3, an HTRF (Homogeneous Time-Resolved Fluorescence energy transfer) complex is formed consisting of europium (Eu)-labeled anti-GST, GST tagged GRP1-PH domain, biotin-PIP3 and streptavidin conjugated APC. The native PIP3 produced by PI3-Kinase activity disrupts in a competitive manner the biotin-PIP3 from the PH domain, resulting in the loss of energy transfer (HTRF complex) and a decrease in the signal. The format of this assay is the same for all 4 isoforms of PI3K; the differences lie in the concentration of enzyme used to achieve robust assay window. The alpha, beta, and delta assays are run at 0.5, 1, and 0.3 nM enzymes and the gamma assay is run at 5 nM enzyme. The ATP concentration is 100 uM in the alpha, beta, and delta assays and 50 uM ATP in the gamma assay. All reactions are run at 5 uM PIP2.
# Compounds are serially diluted (3-fold in 100% DMSO) across a 384-well polypropylene source plated from column 3 to column 12 and column 13 to column 22, to yield 10 concentration dose response for each test compound. Columns 1, 2, 23 and 24 contain either only DMSO or pharmacological known control inhibitor.
# The PI3-Kinase biochemical assay was optimized using the HTRF kit provided by Upstate (Millipore). The assay kit contains six reagents: 1) 4× Reaction Buffer; 2) native PIP2 (substrate); 3) Stop (EDTA); 4) Detection Mix A (Streptavidin-APC); 5) Detection Mix B (Eu-labeled Anti-GST plus GST-tagged PH-domain); 6) Detection Mix C.
# PI3Kinase Reaction Buffer is prepared by dilution the stock 1:4 with de-ionized water. […] Enzyme addition and compound pre-incubation are initiated by the addition of 1.25 ul of PI3K (at twice its final concentration) in the 1× reaction buffer to all wells using a BioRaptor. Plates are incubated at room temperature for 15 minutes. Reactions are initiated by addition of 1.25 ul of 2× substrate solution (PIP2 and ATP in 1× reaction buffer) using BioRaptor. Plates are incubated in humidified chamber at room temperature for one hour. Reactions are quenched by addition of 0.625 uL of stop solution to all wells using the BioRaptor. The quenched reactions are then processed to detect product formation by adding 0.625 uL of Detection Solution to all wells using the BioRaptor (Detection mix C, Detection Mix A, and Detection Mix B combined together in an 18:1:1 ratio prepared 2 hours prior to use).
# The loss of the HTRF signal is due to the displacement of biotinylated-PIP3 from the PH domain by the PI3K-dependent conversion of PIP2 to PIP3. This loss of signal is nonlinear with respect to both increasing product and time. This non-linear detection will impact accuracy of IC50 calculations; therefore, there is a need for a correction factor to obtain more accurate IC50 values. This correction is derived from a PIP3 standard curve run in a separate assay plate. All data were calculated using the ratio of acceptor (APC) to donor (Europium) fluorescence in each well of the assay plate. […] An IC50 was then calculated fitting the % inhibition data to the equation: % inhibition=min+(Max−min)/1+([inhibitor]/IC50)^n) where min is the % inhibition […], max is the signal in DMSO control, and n is the Hill slope.
# Chain of PI3K-alpha (P42336 whole entry, looked up, canonical isoform): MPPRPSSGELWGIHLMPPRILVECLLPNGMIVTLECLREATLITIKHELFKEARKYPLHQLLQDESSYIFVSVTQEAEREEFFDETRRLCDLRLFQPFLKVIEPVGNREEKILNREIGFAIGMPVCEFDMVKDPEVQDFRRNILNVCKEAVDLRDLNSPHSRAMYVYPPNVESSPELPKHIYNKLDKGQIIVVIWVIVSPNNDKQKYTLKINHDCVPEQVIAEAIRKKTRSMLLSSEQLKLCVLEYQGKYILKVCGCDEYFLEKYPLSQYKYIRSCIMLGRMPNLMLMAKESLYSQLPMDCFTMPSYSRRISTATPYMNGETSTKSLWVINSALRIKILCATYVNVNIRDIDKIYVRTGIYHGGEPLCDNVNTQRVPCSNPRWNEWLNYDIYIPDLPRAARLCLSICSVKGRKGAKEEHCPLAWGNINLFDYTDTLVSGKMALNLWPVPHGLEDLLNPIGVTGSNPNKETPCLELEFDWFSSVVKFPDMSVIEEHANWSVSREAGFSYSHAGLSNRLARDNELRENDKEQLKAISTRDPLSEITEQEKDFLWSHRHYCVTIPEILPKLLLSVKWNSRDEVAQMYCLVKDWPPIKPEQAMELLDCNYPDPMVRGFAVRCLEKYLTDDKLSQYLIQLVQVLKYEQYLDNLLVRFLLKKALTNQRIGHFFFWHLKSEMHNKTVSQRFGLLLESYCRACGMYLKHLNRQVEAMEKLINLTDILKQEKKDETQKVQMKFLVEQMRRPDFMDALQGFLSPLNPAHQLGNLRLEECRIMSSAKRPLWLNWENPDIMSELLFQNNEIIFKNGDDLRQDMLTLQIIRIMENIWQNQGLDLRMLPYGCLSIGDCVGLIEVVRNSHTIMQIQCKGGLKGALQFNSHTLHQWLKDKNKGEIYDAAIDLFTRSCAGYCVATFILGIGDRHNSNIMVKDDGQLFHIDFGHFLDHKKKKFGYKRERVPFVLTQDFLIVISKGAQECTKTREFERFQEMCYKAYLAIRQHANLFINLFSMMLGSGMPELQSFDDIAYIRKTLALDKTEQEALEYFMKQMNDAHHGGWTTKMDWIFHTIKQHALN
# Chain of PI3K-alpha (P27986 whole entry partner, looked up, canonical isoform): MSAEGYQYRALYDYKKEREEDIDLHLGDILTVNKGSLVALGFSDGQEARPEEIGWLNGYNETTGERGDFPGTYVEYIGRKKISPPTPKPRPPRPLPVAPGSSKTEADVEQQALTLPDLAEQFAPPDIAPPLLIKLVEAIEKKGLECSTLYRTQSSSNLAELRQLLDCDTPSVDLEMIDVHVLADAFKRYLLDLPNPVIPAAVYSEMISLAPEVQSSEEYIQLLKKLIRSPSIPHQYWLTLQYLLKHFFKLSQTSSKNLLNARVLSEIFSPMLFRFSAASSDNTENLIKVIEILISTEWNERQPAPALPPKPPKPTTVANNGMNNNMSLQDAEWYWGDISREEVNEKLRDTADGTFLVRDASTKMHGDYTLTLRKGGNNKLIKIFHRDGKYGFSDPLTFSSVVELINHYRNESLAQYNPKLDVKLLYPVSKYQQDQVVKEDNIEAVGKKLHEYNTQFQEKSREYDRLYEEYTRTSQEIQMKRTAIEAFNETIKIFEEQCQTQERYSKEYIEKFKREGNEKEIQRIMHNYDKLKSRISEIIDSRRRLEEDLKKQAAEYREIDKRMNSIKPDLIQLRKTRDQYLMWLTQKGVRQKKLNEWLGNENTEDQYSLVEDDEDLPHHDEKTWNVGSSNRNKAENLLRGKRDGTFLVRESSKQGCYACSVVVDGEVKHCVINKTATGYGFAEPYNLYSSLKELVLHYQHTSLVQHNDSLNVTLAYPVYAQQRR
row,Compound,Relative Selectivity versus PI3Kalpha
1,"CCn1c(-c2cnc(C)nc2)nc2c(OC3CN(C(=O)C4CC4)CC3O)ncnc21 (single isomer, unassigned) [Compound 2-100, [(3R,4R) or (3S,4S)]-trans-1-(cyclopropylcarbonyl)-4-{[9-ethyl-8-(2-methylpyrimidin-5-yl)-9H-purin-6-yl]oxy}pyrrolidin-3-ol]",>10
2,"CCn1c(-c2cnc(C)nc2)nc2c(OC3CN(C(=O)C4CC4)CC3OC)ncnc21 (single isomer, unassigned) [Compound 2-115]",>10
3,"CCn1c(-c2cnc(C)nc2)nc2c(O[C@H]3CCN(C(=O)C4CCC4C)C3)ncnc21 (single isomer, unassigned) [Compound 2-117, 9-ethyl-6-({(3S)-1-[([(1R,2S) or (1R,2R) or (1S,2R) or (1S,2S)]-methylcyclobutyl)carbonyl]pyrrolidin-3-yl}oxy)-8-(2-methylpyrimidin-5-yl)-9H-purine]",>10
4,"CCn1c(-c2cnc(C)nc2)nc2c(O[C@H]3CCN(C(=O)C4CCC4C)C3)ncnc21 (single isomer, unassigned) [Compound 2-118, 9-ethyl-6-({(3S)-1-[([(1R,2S) or (1R,2R) or (1S,2R) or (1S,2S)]-methylcyclobutyl)carbonyl]pyrrolidin-3-yl}oxy)-8-(2-methylpyrimidin-5-yl)-9H-purine]",>10
5,"CCn1c(-c2cnc(C)nc2)nc2c(O[C@H]3CCN(C(=O)C4CCC4C)C3)ncnc21 (single isomer, unassigned) [Compound 2-119, 9-ethyl-6-({(3S)-1-[([(1R,2S) or (1R,2R) or (1S,2R) or (1S,2S)]-methy]cyclobutyl)carbonyl]pyrrolidin-3-yl}oxy)-8-(2-methylpyrimidin-5-yl)-9H-purine]",>10
6,"CCn1c(-c2cnc(C)nc2)nc2c(O[C@H]3CCN(C(=O)C4CCC4C)C3)ncnc21 (single isomer, unassigned) [Compound 2-120, 9-ethyl-6-({(3S)-1-[([(1R,2S) or (1R,2R) or (1S,2R) or (1S,2S)]-methylcyclobutyl)carbonyl]pyrrolidin-3-yl}oxy)-8-(2-methylpyrimidin-5-yl)-9H-purine]",>10
7,"CCn1c(-c2cnc(C)nc2)nc2c(O[C@H]3CCN(C(=O)C4CC4C(F)F)C3)ncnc21 (single isomer, unassigned) [Compound 2-124, 6-{[(3S)-{(1S,2S)- or (1R,2R)-[2-(difluoromethyl)cyclopropyl]carbonyl}pyrrolidin-3-yl]oxy}-9-ethyl-8-(2-methylpyrimidin-5-yl)-9H-purine]",>10
8,"CCn1c(-c2cnc(C)nc2)nc2c(O[C@H]3CCN(C(=O)C4CC4C(F)F)C3)ncnc21 (single isomer, unassigned) [Compound 2-125, 6-{[(3S)-1-{(1S,2S)- or (1R,2R)-[2-(difluoromethyl)cyclopropyl]carbonyl}pyrrolidin-3-yl]oxy}-9-ethyl-8-(2-methylpyrimidin-5-yl)-9H-purine]",>10
9,"CCn1c(-c2cnc(C)nc2)nc2c(O[C@H]3CCN(C(=O)C4CC4(C)C)C3)ncnc21 (single isomer, unassigned) [Compound 2-126, 6-({(3S)-1-[S- or R-(2,2-dimethylcyclopropyl)carbonyl]pyrrolidin-3-yl}oxy)-9-ethyl-8-(2-methylpyrimidin-5-yl)-9H-purine]",>10
10,"CCn1c(-c2cnc(C)nc2)nc2c(O[C@H]3CCN(C(=O)C4CC4(C)C)C3)ncnc21 (single isomer, unassigned) [Compound 2-127, 6-({(3S)-1-[S- or R-(2,2-dimethylcyclopropyl)carbonyl]pyrrolidin-3-yl}oxy)-9-ethyl-8-(2-methylpyrimidin-5-yl)-9H-purine]",>10
11,"CCn1c(-c2cnc(C)nc2)nc2c(O[C@H]3CCN(C(=O)C4CC4CO)C3)ncnc21 (single isomer, unassigned) [Compound 2-130, (1S,2S)- or (1R,2R)-{[(3S)-3-{[9-ethyl-8-(2-methylpyrimidin-5-yl)-9H-purin-6-yl]oxy}pyrrolidin-1-yl]carbonyl}cyclopropyl)methanol]",>10
12,"CCn1c(-c2cnc(C)nc2)nc2c(O[C@H]3CCN(C(=O)C4CC4CO)C3)ncnc21 (single isomer, unassigned) [Compound 2-131, (1S,2S)- or (1R,2R)-{[(3S)-3-{[9-ethyl-8-(2-methylpyrimidin-5-yl)-9H-purin-6-yl]oxy}pyrrolidin-1-yl]carbonyl}cyclopropyl)methanol]",>10
13,"CCn1c(-c2cnc(C)nc2)nc2c(O[C@H]3CCN(C(=O)C4CC4CF)C3)ncnc21 (single isomer, unassigned) [Compound 2-132, 9-ethyl-6-{[(3S)-1-{[(1S,2S)- or (1R,2R)-2-(fluoromethyl)cyclopropyl]carbonyl}pyrrolidin-3-yl]oxy}-8-(2-methylpyrimidin-5-yl)-9H-purine]",>10
14,"CCn1c(-c2cnc(C)nc2)nc2c(O[C@H]3CCN(C(=O)C4CC4CF)C3)ncnc21 (single isomer, unassigned) [Compound 2-133, 9-ethyl-6-{[(3S)-1-{[(1S,2S)- or (1R,2R)-2-(fluoromethyl)cyclopropyl]carbonyl}pyrrolidin-3-yl]oxy}-8-(2-methylpyrimidin-5-yl)-9H-purine]",>10
15,"CCn1c(-c2cnc(C)nc2)nc2c(O[C@H]3CCN(C(=O)C4CC4F)C3)ncnc21 (single isomer, unassigned) [Compound 2-134, 9-ethyl-6-(((3S)-1-[((1R,2R)- or (1S,2S)-2-fluorocyclopropyl)carbonyl]pyrrolidin-3-yl}oxy)-8-(2-methylpyrimidin-5-yl)-9H-purine]",>10
16,"CCn1c(-c2cnc(C)nc2)nc2c(O[C@H]3CCN(C(=O)C4CC4F)C3)ncnc21 (single isomer, unassigned) [Compound 2-135, 9-ethyl-6-({(3S)-1-[((1R,2R)- or (1S,2S)-2-fluorocyclopropyl)carbonyl]pyrrolidin-3-yl}oxy)-8-(2-methylpyrimidin-5-yl)-9H-purine]",>10
17,"CCn1c(-c2cnc(C)nc2)nc2c(OC3CN(C(=O)C4CC4)CC3F)ncnc21 (single isomer, unassigned) [Compound 2-137, 6-{[1-(cyclopropylcarbonyl)-(3S,4S)- or (3R,4R)-4-fluoropyrrolidin-3-yl]oxy}-9-ethyl-8-(2-methylpyrimidin-5-yl)-9H-purine]",>10
18,"CCn1c(-c2cnc(C)nc2)nc2c(OC3CN(C(=O)C4CC4)CC3F)ncnc21 (single isomer, unassigned) [Compound 2-138, 6-{[1-(cyclopropylcarbonyl)-(3S,4S)- or (3R,4R)-4-fluoropyrrolidin-3-yl]oxy}-9-ethyl-8-(2-methylpyrimidin-5-yl)-9H-purine]",>10
19,"CCC1CN(C(=O)C2CC2)C[C@H]1Oc1ncnc2c1nc(-c1cnc(C)nc1)n2CC (single isomer, unassigned) [Compound 3-47, [3R,4S or 3S,4R]-6-{[1-(cyclopropylcarbonyl)-4-ethylpyrrolidin-3-yl]oxy}-9-ethyl-8-(2-methylpyrimidin-5-yl)-9H-purine]",>10
